Results taken from ChEMBL document CHEMBL5375978, “Harnessing the Reactivity of Duclauxin toward Obtaining hPTP1B1-400 Inhibitors” (J Med Chem, 2023).

Molecular target: T1, Tyrosine-protein phosphatase non-receptor type 1 (Homo sapiens, UniProt P18031)
T1 sequence (P18031 whole entry): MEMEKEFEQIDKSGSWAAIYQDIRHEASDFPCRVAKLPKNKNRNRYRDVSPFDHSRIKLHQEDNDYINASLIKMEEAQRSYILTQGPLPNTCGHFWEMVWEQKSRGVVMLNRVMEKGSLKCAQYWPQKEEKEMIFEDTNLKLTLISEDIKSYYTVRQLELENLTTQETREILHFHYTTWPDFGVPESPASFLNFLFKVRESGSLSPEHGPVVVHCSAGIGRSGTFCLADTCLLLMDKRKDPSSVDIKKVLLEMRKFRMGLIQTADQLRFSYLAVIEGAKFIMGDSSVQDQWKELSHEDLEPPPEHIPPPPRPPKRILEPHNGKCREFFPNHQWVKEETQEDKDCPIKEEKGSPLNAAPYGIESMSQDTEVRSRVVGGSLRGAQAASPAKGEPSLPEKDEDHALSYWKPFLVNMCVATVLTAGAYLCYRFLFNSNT
Test: Inhibition of wild type N-terminal 6 his tagged human PTP1B (1 to 400 residues) expressed in Escherichia coli (Rosetta, DE3) using p-NPP as substrate preincubated for 10 mins followed by substrate addition and measured after 20 mins by absorbance based analysis

Row | SMILES | IC50 [µM]
1 | CO[C@H]1OC(=O)c2c(O)cc(C)c3c4c(c(O)c1c23)[C@]12COC(=O)c3c(O)cc(C)c(c31)C(=O)[C@H]4[C@@H]2OC(C)=O | 38
2 | CC(=O)O[C@H]1[C@@H]2C(=O)c3c(C)cc(O)c4c3[C@@]1(COC4=O)c1c(O)c3c4c(c(O)cc(C)c4c12)C(=O)O3 | 82.1
3 | CO[C@@]12c3c(C)cc(O)c4c3C(=C(O)[C@@H]1[C@]13COC(=O)c5c(O)cc(C)c(c51)C(=O)[C@H]2[C@@H]3OC(C)=O)C=NC4=O | 23.7
4 | CO[C@@]12c3c(C)cc(O)c4c(=O)n(-c5cccc(Cl)c5)cc(c34)C(=O)[C@@H]1[C@]13COC(=O)c4c(O)cc(C)c(c41)C(=O)[C@H]2[C@@H]3OC(C)=O | 73.1
5 | CCOC(=O)[C@H](Cc1ccccc1)n1cc2c3c(c(C)cc(O)c3c1=O)[C@]1(OC)[C@H](C2=O)[C@]23COC(=O)c4c(O)cc(C)c(c42)C(=O)[C@H]1[C@@H]3OC(C)=O | 55.6
6 | CO[C@@]12c3c(C)cc(O)c4c(=O)n(-c5ccc(C)cc5)cc(c34)C(=O)[C@@H]1[C@]13COC(=O)c4c(O)cc(C)c(c41)C(=O)[C@H]2[C@@H]3OC(C)=O | 35.3
7 | CCOC(=O)[C@H](Cc1ccccc1)n1cc2c3c(c(C)cc(O)c3c1=O)C1=C(C2=O)[C@]23COC(=O)c4c(O)cc(C)c(c42)C(=O)[C@H]1[C@@H]3OC(C)=O | 22.9
8 | CC(=O)O[C@H]1[C@@H]2C(=O)c3c(C)cc(O)c4c3[C@@]1(COC4=O)c1c(O)c(C=O)c3cc(O)cc(C)c3c12 | 3.5
9 | CO[C@@]12c3c(C)cc(O)c4c(=O)n(-c5ccc(Br)cc5)cc(c34)C(=O)[C@@H]1[C@]13COC(=O)c4c(O)cc(C)c(c41)C(=O)[C@H]2[C@@H]3OC(C)=O | 47.4
10 | CO[C@@]12c3c(C)cc(O)c4c(=O)n(CC(=O)O)cc(c34)C(=O)[C@@H]1[C@]13COC(=O)c4c(O)cc(C)c(c41)C(=O)[C@H]2[C@@H]3OC(C)=O | 13.5
11 | CC(=O)O[C@H]1[C@@H]2C(=O)c3c(C)cc(O)c4c3[C@@]1(COC4=O)C1=C2c2c(C)cc(O)c3c(=O)n(-c4cc(C)ccn4)cc(c23)C1=O | 15.7
12 | COc1ccc(-n2cc3c4c(c(C)cc(O)c4c2=O)C2=C(C3=O)[C@]34COC(=O)c5c(O)cc(C)c(c53)C(=O)[C@H]2[C@@H]4OC(C)=O)cc1OC | 16.9

The remaining lines, values ahead:

Row | IC50 [µM] | SMILES
13 | 23.7 | CC(=O)O[C@H]1[C@@H]2C(=O)c3c(C)cc(O)c4c3[C@@]1(COC4=O)C1=C2c2c(C)cc(O)c3c(=O)n(-c4ccc(O)cc4)cc(c23)C1=O
14 | 36.4 | CC(=O)O[C@H]1[C@@H]2C(=O)c3c(C)cc(O)c4c3[C@@]1(COC4=O)C1=C2c2c(C)cc(O)c3c(=O)n(-c4ccccn4)cc(c23)C1=O
15 | 13 | CC(=O)O[C@H]1[C@@H]2C(=O)c3c(C)cc(O)c4c3[C@@]1(COC4=O)C1=C2c2c(C)cc(O)c3c(=O)n(-c4ccc(I)cc4)cc(c23)C1=O
16 | 78.4 | CC(=O)O[C@H]1[C@@H]2C(=O)c3c(C)cc(O)c4c3[C@@]1(COC4=O)C1=C2c2c(C)cc(O)c3c(=O)n(-c4ccccc4)cc(c23)C1=O
17 | 8 | CC(=O)O[C@H]1[C@@H]2C(=O)c3c(C)cc(O)c4c3[C@@]1(COC4=O)C1=C2c2c(C)cc(O)c3c(=O)n(-c4cccc([N+](=O)[O-])c4)cc(c23)C1=O
18 | 23.3 | CC(=O)O[C@H]1[C@@H]2C(=O)c3c(C)cc(O)c4c3[C@@]1(COC4=O)C1=C2c2c(C)cc(O)c3c(=O)n(-c4cnc5ccccc5c4)cc(c23)C1=O
19 | 13.9 | CC(=O)O[C@H]1[C@@H]2C(=O)c3c(C)cc(O)c4c3[C@@]1(COC4=O)C1=C2c2c(C)cc(O)c3c(=O)n(-c4ccc(Cl)cc4)cc(c23)C1=O
20 | 6.4 | CC(=O)O[C@H]1[C@@H]2C(=O)c3c(C)cc(O)c4c3[C@@]1(COC4=O)C1=C2c2c(C)cc(O)c3c(=O)n(-c4cccc5cccnc45)cc(c23)C1=O
21 | 56.9 | CC(=O)O[C@H]1[C@@H]2C(=O)c3c(C)cc(O)c4c3[C@@]1(COC4=O)C1=C2c2c(C)cc(O)c3c(=O)n(-c4cccnc4)cc(c23)C1=O
